pIC50, pKd: −log10 of the molar value.
What was measured:
Settings in all cases: pH 7.35
[1] = molecular target: Bifunctional protein GlmU (Escherichia coli (strain K12), UniProt P0ACC7); assay: Inhibition Assay
Description: (§1) Inhibition assay using GlmU bifuncation enzyme with various bacterial strains.

[2] = molecular target: Bifunctional protein GlmU (Streptococcus pneumoniae (strain ATCC BAA-255 / R6), UniProt Q8DQ18); assay: Inhibition Assay
Description: as §1

[3] = molecular target: Bifunctional protein GlmU (Staphylococcus aureus (strain COL), UniProt Q5HIH6); assay: Inhibition Assay
Sequence of Bifunctional protein GlmU (Staphylococcus aureus (strain COL), UniProt Q5HIH6) (Q5HIH6 whole entry): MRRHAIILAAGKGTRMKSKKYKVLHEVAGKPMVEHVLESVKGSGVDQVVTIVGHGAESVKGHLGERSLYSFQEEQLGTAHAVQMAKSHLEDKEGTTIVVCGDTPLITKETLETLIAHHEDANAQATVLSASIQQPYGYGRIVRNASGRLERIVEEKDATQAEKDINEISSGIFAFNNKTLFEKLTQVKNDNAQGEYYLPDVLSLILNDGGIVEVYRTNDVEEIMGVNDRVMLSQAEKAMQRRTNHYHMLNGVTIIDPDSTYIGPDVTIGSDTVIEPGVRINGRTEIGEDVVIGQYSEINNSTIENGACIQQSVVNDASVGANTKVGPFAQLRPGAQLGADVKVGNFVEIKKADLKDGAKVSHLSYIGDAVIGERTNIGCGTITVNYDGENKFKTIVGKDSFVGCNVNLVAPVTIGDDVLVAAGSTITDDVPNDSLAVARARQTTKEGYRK
Description: as §1

[4] = molecular target: Bifunctional protein GlmU (Haemophilus influenzae (strain ATCC 51907 / DSM 11121 / KW20 / Rd), UniProt P43889); assay: Inhibition Assay
Sequence of Bifunctional protein GlmU (Haemophilus influenzae (strain ATCC 51907 / DSM 11121 / KW20 / Rd), UniProt P43889) (P43889 whole entry): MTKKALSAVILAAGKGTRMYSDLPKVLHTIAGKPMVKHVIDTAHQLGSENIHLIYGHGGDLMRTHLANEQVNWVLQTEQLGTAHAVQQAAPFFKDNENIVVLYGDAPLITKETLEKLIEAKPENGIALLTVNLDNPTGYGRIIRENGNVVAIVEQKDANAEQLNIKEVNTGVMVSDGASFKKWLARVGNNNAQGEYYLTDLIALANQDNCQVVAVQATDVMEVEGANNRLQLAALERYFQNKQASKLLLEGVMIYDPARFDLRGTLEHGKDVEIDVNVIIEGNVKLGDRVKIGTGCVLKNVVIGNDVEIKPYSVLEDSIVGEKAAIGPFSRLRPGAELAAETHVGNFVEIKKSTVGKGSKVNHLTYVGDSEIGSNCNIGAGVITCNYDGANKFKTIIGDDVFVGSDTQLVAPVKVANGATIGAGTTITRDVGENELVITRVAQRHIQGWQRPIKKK
Description: as §1

[5] = molecular target: Bifunctional protein GlmU (Escherichia coli) (UniProt P0ACC7); assay: Inhibition assay using GlmU bifuncation enzyme with various bacterial strains.
Sequence of Bifunctional protein GlmU (Escherichia coli) (P0ACC7 whole entry, looked up): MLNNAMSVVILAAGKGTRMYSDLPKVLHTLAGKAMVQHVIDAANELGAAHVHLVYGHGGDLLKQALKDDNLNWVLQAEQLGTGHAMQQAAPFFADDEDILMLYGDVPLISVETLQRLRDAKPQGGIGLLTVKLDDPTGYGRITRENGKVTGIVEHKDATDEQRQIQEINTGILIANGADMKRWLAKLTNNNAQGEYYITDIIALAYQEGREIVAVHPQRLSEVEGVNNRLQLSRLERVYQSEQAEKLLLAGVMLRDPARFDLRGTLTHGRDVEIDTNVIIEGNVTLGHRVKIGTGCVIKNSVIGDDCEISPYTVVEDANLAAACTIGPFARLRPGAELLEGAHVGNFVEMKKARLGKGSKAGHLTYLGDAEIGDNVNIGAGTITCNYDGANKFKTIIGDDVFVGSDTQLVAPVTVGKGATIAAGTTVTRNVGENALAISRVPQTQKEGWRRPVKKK

Sequence of Bifunctional protein GlmU (Streptococcus pneumoniae (strain ATCC BAA-255 / R6), UniProt Q8DQ18) (Q8DQ18 whole entry): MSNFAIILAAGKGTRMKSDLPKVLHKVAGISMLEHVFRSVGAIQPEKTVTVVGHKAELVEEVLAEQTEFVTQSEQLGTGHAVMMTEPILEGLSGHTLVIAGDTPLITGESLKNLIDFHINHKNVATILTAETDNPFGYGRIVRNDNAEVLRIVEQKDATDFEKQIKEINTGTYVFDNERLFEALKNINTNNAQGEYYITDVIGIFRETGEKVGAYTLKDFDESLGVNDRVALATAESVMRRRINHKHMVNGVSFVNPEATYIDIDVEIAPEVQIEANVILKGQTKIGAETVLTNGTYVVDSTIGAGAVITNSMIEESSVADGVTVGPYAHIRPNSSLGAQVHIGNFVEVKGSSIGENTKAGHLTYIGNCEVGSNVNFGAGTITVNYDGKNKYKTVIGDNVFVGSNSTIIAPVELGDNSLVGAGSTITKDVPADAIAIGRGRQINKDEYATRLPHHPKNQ
Sequence of Bifunctional protein GlmU (Escherichia coli (strain K12), UniProt P0ACC7) (P0ACC7 whole entry): as the sequence (P0ACC7 whole entry, looked up) above

SMILES: COc1cc(OC)c(S(=O)(=O)N2c3ccccc3CC2C)cc1NC(C)=O (stereo not drawn)
- pIC50 [1]: 5.68
- pIC50 [2]: < 3.70
- pIC50 [3]: < 3.70
- pIC50 [4]: 5.11

SMILES: COc1cc(OC)c(S(=O)(=O)N(C)c2ccccc2)cc1NC(C)=O
- pKd [5]: 5.72
- pIC50 [2]: < 3.70
- pIC50 [4]: 5.19

SMILES: COc1cc(OC)c(S(=O)(=O)N2c3ccccc3Oc3ccccc32)cc1NC(=O)CCC(=O)O [Sulfonamide, 5]
- pIC50 [1]: 8.15
- pIC50 [2]: 4.82
- pIC50 [3]: < 3.70
- pIC50 [4]: 7.64

SMILES: COc1cc(OC)c(S(=O)(=O)N(c2ccccc2)c2ccc(N)cc2)cc1NC(=O)CCC(=O)O [Sulfonamide, 3]
- pIC50 [2]: 4.40
- pIC50 [3]: < 3.70
- pIC50 [4]: 6.40

SMILES: COc1cc(O)c(S(=O)(=O)N2c3ccccc3CCC2C)cc1NC(=O)CCC(=O)O (stereo not drawn) [Sulfonamide, 4]
- pIC50 [1]: 7.24
- pIC50 [2]: 5.33
- pIC50 [3]: < 3.70
- pIC50 [4]: 6.55

Source: BindingDB's records for doi:10.1074/jbc.M111.274068 (Astrazeneca, 2011)
